According to PMC5349910, “Discovery of BPR1K871, a quinazoline based, multi-kinase inhibitor for the treatment of AML and solid tumors: Rational design, synthesis, in vitro and in vivo evaluation” (Oncotarget, 2016):
In brackets after ≈: the same amount, converted by molar mass. Several values for one entry are separate records, joined by “and”; a condition that tells them apart may be missing. Equal entries are not always repeated. Where two headings read alike, the source gives them in different places.

Legend:
AURKB = AURKB (Homo sapiens, UniProt Q96GD4); assay: AURKB inhibition assay (Kinase-Glo); type: biochemical; parameters: full length His-tagged Aurora-B (residues M1∼A344); His; purchased Invitrogen PV6130; conditions: 500 nM; duplicate determination
Description: AURKB assay was conducted as previously described. Briefly, the recombinant full length His-tagged Aurora-B (residues M1∼A344) was purchased from Invitrogen (Catalog number: PV6130). The kinase assay was carried out in 96-well plates with the tested compound in reaction solution (50 mM Tris-HCl pH 7.4, 10 mM NaCl, 10 mM MgCl2, 0.01% BSA, 5 mM ATP, 1 mM DTT and 15 mM tetra(LRRASLG) peptide, and 40 ng recombinant Aurora-B) at 30°C for 180 min.
(§1) Following incubation, 50 μL Kinase-Glo Plus Reagent (Promega, Madison, WI, USA) was added, and the mixture was incubated at 25°C for 20 min. A 70 μL aliquot of each reaction mixture was transferred to a black microliter plate, and luminescence was measured on a Wallac Vector 1420 multilabel counter (PerkinElmer, Shelton, CT, USA).

[1] = tested on: Detroit 551 (human normal skin fibroblast cells); assay: MTS cell viability assay, Detroit-551; type: cell-based; conditions: 72 h
Description: The MTS cell viability assay was conducted as previously described. The MOLM-13 human leukemia cell line was obtained from the German Resource Centre for Biological Material (DSMZ, Braunschweig, Germany); the MV4-11 cell line was purchased from the American Type Culture Collection (ATCC, Manassas, VA, USA). Both the leukemia cell lines were maintained in RPMI 1640 medium supplemented with 10% fetal bovine serum (FBS), 10 UmL^-1 penicillin, and […] streptomycin at 37°C and 5% CO2. The Detroit-551, COLO205, and Mia-PaCa2 cell lines were purchased from the American Type Culture Collection (ATCC, Manassas, VA, USA) and cultured according to instructions of ATCC. To determine cell viability after drug treatment, assay for MOLM-13 and MV4-11 was performed by seeding 10000 cells per well in a 96-well culture plate. Detroit-551, COLO205, and Mia-PaCa2 were seeded at density of 2500, 4000, and 3750 cells per well, respectively. After 16 h, cells were then treated with vehicle or various concentrations of compound in medium for 72 h. Viable cells were quantified using the MTS method (Promega, Madison, WI, USA) according to the manufacturer's recommended protocol. Results were determined by measuring the absorbance at 490 nm using a plate reader (Victor2; PerkinElmer, Shelton, CT, USA).

MOLM-13 cells = assay: MTS cell viability assay, MOLM-13; type: cell-based, human; conditions: MTS, 72 h, AML-FLT3-ITD (heterozygous), supplement values ± SEM, read-out: MOLM-13 EC50
Description: (§2) The MTS cell viability assay was conducted as previously described. The MOLM-13 human leukemia cell line was obtained from the German Resource Centre for Biological Material (DSMZ, Braunschweig, Germany); the MV4-11 cell line was purchased from the American Type Culture Collection (ATCC, Manassas, VA, USA). […] To determine cell viability after drug treatment, assay for MOLM-13 and MV4-11 was performed by seeding 10000 cells per well in a 96-well culture plate. […] After 16 h, cells were then treated with vehicle or various concentrations of compound in medium for 72 h. Viable cells were quantified using the MTS method (Promega, Madison, WI, USA) according to the manufacturer's recommended protocol. Results were determined by measuring the absorbance at 490 nm using a plate reader (Victor2; PerkinElmer, Shelton, CT, USA).

FLT3 [2] = biological target: T1, FLT3 (Homo sapiens, UniProt P36888); assay: FLT3 kinase inhibition assay (Kinase-Glo); type: biochemical; conditions: for IC50: mean of at least two independent experiments, within ±15%; for selectivity for FLT3 over AURKA: from enzyme IC50
T1 construct: FLT3 kinase catalytic domain (residues Tyr567-Ser993); made in house; host or cells: Sf9 insect cells (baculovirus, pBac-PAK8-GST-FLT3-KD)
T1 sequence (P36888 567-993): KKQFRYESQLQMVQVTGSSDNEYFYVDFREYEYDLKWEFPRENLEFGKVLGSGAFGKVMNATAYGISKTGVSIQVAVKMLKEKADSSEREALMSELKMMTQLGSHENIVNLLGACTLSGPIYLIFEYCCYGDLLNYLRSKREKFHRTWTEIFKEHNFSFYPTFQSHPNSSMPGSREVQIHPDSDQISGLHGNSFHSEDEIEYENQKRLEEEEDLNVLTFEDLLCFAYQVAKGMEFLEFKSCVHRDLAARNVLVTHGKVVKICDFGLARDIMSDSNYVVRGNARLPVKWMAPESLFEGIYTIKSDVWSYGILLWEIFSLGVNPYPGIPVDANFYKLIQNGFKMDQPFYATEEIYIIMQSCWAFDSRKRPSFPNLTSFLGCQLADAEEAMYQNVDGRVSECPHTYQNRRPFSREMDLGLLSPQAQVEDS
Description: The FLT3 assay was conducted as previously described. Briefly, GST-FLT3-KD^WT containing the FLT3 kinase catalytic domain (residues Tyr567-Ser993) was expressed in Sf9 insect cells transfected with the baculovirus containing pBac-PAK8-GST-FLT3-KD plasmid.
as §1

MV4-11 cells = assay: MTS cell viability assay, MV4-11; type: cell-based, human; conditions: MTS, 72 h, AML-FLT3-ITD (homozygous), supplement values ± SEM, read-out: MV4-11 EC50
Description: as §2

AURKA = biological target: T2, AURKA (Homo sapiens, UniProt O14965); assay: AURKA inhibition assay (Kinase-Glo); type: biochemical; conditions: for IC50: mean of at least two independent experiments, within ±15%; for selectivity for AURKA over FLT3: from enzyme IC50
T2 construct: recombinant GST-AURKA (residues Ser123-Ser401) containing the kinase domain; GST (N); made in house; host or cells: Sf9 insect cells
T2 sequence (O14965 123-401): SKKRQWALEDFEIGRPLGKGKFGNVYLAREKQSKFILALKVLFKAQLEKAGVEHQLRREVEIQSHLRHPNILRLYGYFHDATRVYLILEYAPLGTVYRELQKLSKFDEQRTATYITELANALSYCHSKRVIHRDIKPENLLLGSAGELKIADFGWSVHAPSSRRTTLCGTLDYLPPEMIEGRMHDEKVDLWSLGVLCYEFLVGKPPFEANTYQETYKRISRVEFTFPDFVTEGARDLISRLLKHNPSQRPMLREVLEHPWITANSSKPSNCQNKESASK
Description: AURKA assay was conducted as previously described. Briefly, the recombinant GST-AURKA (residues Ser123-Ser401) containing the kinase domain was expressed in Sf9 insect cells.
Following incubation, 50 μL Kinase-Glo Plus Reagent (Promega, Madison, WI, USA) was added, and the mixture was incubated at 25°C for 20 min.

HCC827 cells = assay: Anti-proliferative activity, HCC827; type: cell-based; conditions: Homo sapiens, HCC827; NSCLC-EGFR L858R; supplement values ± SEM; read-out: HCC827 EC50
FLT3 [3] = biological target: T1, FLT3; parameters: method as in PMID 20550212, PMID 23172777, PMID 24665000; conditions: previously reported leads 1, 2, 3; cited from earlier work
Aqueous solubility = type: physicochemical; conditions: in water
H1975 cells = assay: Anti-proliferative activity, H1975; type: cell-based; conditions: Homo sapiens, NCI-H1975; NSCLC-EGFR LR/TM; supplement values ± SEM; read-out: H1975 EC50
CL-97 cells = assay: Anti-proliferative activity, CL-97; type: cell-based, human; conditions: CL97; Human Lung Cancer; supplement values ± SEM; read-out: CL-97 EC50
HCT-116 cells = assay: Anti-proliferative activity, HCT-116; type: cell-based, human; conditions: HCT-116; Human Colon Cancer; supplement values ± SEM; read-out: HCT-116 EC50
H2228 cells = assay: Anti-proliferative activity, H2228; type: cell-based; conditions: Homo sapiens, NCI-H2228; NSCLC-ALK; supplement values ± SEM; read-out: H2228 EC50
Mia-PaCa2 cells = assay: Anti-proliferative activity, Mia-PaCa2; type: cell-based, human; conditions: Homo sapiens, MIA PaCa-2, Human Pancreatic Cancer; supplement values ± SEM
RS4-11 cells = assay: Anti-proliferative activity, RS4-11; type: cell-based; conditions: Homo sapiens, RS4-11; ALL-wt-FLT3 (homozygous); supplement values ± SEM; read-out: RS4-11 EC50

AURKB, sequence (Q96GD4 whole entry): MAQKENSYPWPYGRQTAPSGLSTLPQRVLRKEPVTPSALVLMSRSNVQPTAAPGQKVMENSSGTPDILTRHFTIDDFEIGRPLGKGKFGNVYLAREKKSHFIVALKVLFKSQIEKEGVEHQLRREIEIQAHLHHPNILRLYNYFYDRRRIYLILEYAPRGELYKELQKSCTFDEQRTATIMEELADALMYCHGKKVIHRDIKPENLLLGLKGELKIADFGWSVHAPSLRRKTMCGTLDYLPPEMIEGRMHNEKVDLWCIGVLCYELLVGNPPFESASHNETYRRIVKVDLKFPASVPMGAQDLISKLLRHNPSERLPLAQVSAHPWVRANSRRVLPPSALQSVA

| Compound | inhibition at 0.5 µM (AURKB) [%] | EC50 [1] [nM] | EC50 (MOLM-13 cells; Homo sapiens, MOLM-13, 72 h) [nM] | IC50 (FLT3 [2]) [nM] | EC50 (MV4-11 cells; Homo sapiens, MV4-11, 72 h) [nM] | IC50 (AURKA) | also measured |
| --- | --- | --- | --- | --- | --- | --- | --- |
| CN(C)CCCOc1ccc2c(NCCc3cnc(NC(=O)Nc4ccccc4)s3)ncnc2c1 [Compound 11] | 75.8 | 10900 | 8 | 94 | 21.4 |  |  |
| COc1ccc(Cl)cc1NC(=O)Nc1ncc(CCNc2ncnc3cc(OCCCN(C)C)ccc23)s1 [Compound 13] | 48.6 | 5300 | 6.7 | 16 | 2.1 | 464 nM | selectivity for FLT3 over AURKA (FLT3 [2]): 30 fold |
| CO[C@@H]1[C@H](N(C)C(=O)c2ccccc2)C[C@H]2O[C@]1(C)n1c3ccccc3c3c4c(c5c6ccccc6n2c5c31)C(=O)NC4 [PKC412] |  |  |  |  |  |  | EC50 (HCC827 cells): 687 nM |
| COCCOc1ccc2ncnc(NCCc3cnc(NC(=O)Nc4cccc(Cl)c4)s3)c2c1 [Compound 7] | 42 | 8000 | 412 | 1290 | 342 | 10 nM | selectivity for AURKA over FLT3 (AURKA): 100 fold |
| Cc1ccc(Cl)cc1NC(=O)Nc1ncc(CCNc2ncnc3cc(OCCCN(C)C)ccc23)s1 [Compound 14] | 63 | 3800 | 12.7 | 20.5 | 3.3 | 131 nM | selectivity for FLT3 over AURKA (FLT3 [2]): ~8 fold |
| O=C(Nc1cccc(Cl)c1)Nc1ncc(CCNc2ncnc3ccccc23)s1 [Compound 5] | 92 | 6600 | 69 | 1410 | 65 | 15 nM | selectivity for AURKA over FLT3 (AURKA): 100 fold |
| COc1cc2ncnc(NCCc3ccc(NC(=O)Nc4ccccc4)cc3)c2cc1OC [Compound 2] |  |  |  |  |  |  | IC50 (FLT3 [3]): > 10000 nM |
| COCCOc1ccc2c(NCCc3cnc(NC(=O)Nc4cccc(Cl)c4)s3)ncnc2c1 [Compound 8] | 85.9 | 2900 | 8 | 103 | 9.5 | 11 nM | solubility (Aqueous solubility): 0.107 µg/mL (≈ 0.214 µM) |
| CNC(=O)c1cc(Oc2ccc(NC(=O)Nc3ccc(Cl)c(C(F)(F)F)c3)cc2)ccn1 [Sorafenib] |  |  |  |  |  |  | EC50 (H1975 cells): 7010 nM; EC50 (CL-97 cells): 7050 nM; EC50 (HCT-116 cells): 8800 nM; EC50 (H2228 cells): 7970 nM; EC50 (Mia-PaCa2 cells): 7790 nM; EC50 (RS4-11 cells): 9300 nM |
| COc1cccc(NC(=O)Nc2ncc(CCNc3ncnc4cc(OCCCN(C)C)ccc34)s2)c1 [Compound 12] | 90 | 9800 | 12.4 | 98 | 10.9 | 19 nM |  |
| CN(C)CCOc1ccc2c(NCCc3cnc(NC(=O)Nc4cccc(Cl)c4)s3)ncnc2c1 [Compound 9] | 90.1 | 3400 | 40 | 58 | 57 | 17 nM |  |
| COCCOc1cc2ncnc(NCCc3cnc(NC(=O)Nc4cccc(Cl)c4)s3)c2cc1OCCOC [Compound 6] | 70.4 | 3500 | 90 | 98 | 102 | 6 nM |  |
| COc1cc2ncnc(NCCc3cnc(NC(=O)Nc4cccc(Cl)c4)s3)c2cc1OC [Compound 4] | 100 | 9100 | ~40 | 127 | ~40 | 5 nM and 4.9 nM | EC50 (MOLM-13 cells): 20 nM; solubility (Aqueous solubility): 0.452 µg/mL (≈ 0.932 µM); EC50 (MV4-11 cells): 43 nM |
